From US20250332157A1, “SOLID COMPOSITION OF GLP-1 RECEPTOR AGONIST” (Hangzhou Zhongmeihuadong Pharmaceutical Co., Ltd., priority 2021, published 2025)
“And” between values parts separate entries of the source, which are not always exact repeats. Identical values can stand only once. Counter-ions that a name gives are not always drawn. One block for each compound: values may come before it.

Tests used:
[1] = Forced degradation studies No. 2 of OAD2 2HCl in solution (water, HCl, NaOH, H2O2, UV light), HPLC; type: physicochemical
Description: A stock solution was prepared by dissolving 12.90 mg of OAD2 2 HCl in acetonitrile:water (70:30) to a final volume of 25 mL ([…]). For test groups 1 and 2, the test solution was prepared by mixing 2 mL of the stock solution and 2 mL of water. For test groups 3 and 4, the test solution was prepared by mixing 2 mL of the stock solution and 2 mL of 0.1 N HCl solution. For test groups 5 and 6, the test solution was prepared by mixing 2 mL of the stock solution and 2 mL of 0.1 N NaOH solution. Test groups 1, 3, and 5 (at room temperature) were shielded from light by wrapping with aluminum foil.
A stock solution was prepared by dissolving 5.37 mg of OAD2 2HCl in acetonitrile:water (40:60) to a final volume of 10 mL ([…]). For test group 7, the test solution was prepared by mixing 2 mL of the stock solution and 2 mL of 3% aqueous H2O2. For test group 8, the test solution was prepared by dissolving 5.58 mg to 5.64 mg of OAD2 2HCl in acetonitrile:water (40:60) to a final volume of 25 mL.
The samples in each test group were stored either at room temperature or at 60° C. and observed after the periods indicated in the Table below.
A validated, reverse phase liquid chromatography gradient method was applied to determine assay (content of the active ingredient). The column used was Supelco Ascentis Express RP-Amide, 150×3.0 mm, 2.7μ or equivalent column. Mobile phase A comprises 0.05% TFA in water (v/v). Mobile phase B comprises 0.05% TFA in acetonitrile:methanol (1:2) (v/v). The sample was run using a step gradient from time zero (50% mobile phase A) to 38 minutes (99% mobile phase B). The diluent used to dissolve the standard and sample was a 60:40 mixture of acetonitrile and water. Chromatographic peaks were detected using UV detector at 280 nm. Assay value was obtained by comparing peak responses, expressed as the peak area of a sample formulation of known concentration and the peak area obtained from a standard formulation of known concentration.
The impurities were quantitated using the assay procedure described above. […]

[2] = Forced degradation experiment of active ingredient (acid, alkali, oxidation, high temperature, light, high humidity), HPLC; type: physicochemical; set-up: Impurity B / Impurity E / Impurity F / Impurity G / Impurity I / Largest unknown impurity: unit not given here
Description: Preparation of solutions: • (1) destructive test article solution: 25 mg of OAD2 or a pharmaceutically acceptable salt thereof was placed into a 50 ml measuring flask. Diluent was added to dissolve it and the mixture was diluted to the scale mark, shaken well and used as a test article solution. • (2) test article solution destructed by acid: 25.35 mg of OAD2 or a pharmaceutically acceptable salt thereof was placed into a 50 ml measuring flask. 2 ml of 1 mol/L hydrochloric acid was added, and the mixture was mixed, stood at room temperature for 24 h, adjusted pH to neutral with 1 mol/L sodium hydroxide solution. Diluent was added to dilute the mixture to the scale mark. The mixture was shaken well, and used as the test article solution destructed by acid. • (3) test article solution destructed by alkali: 26.64 mg of OAD2 or a pharmaceutically acceptable salt thereof was placed into a 50 ml measuring flask. 2 ml of 1 mol/L sodium hydroxide solution was added, and the mixture was mixed, stood at room temperature for 24h, adjusted pH to neutral with 1 mol/L hydrochloric acid solution. Diluent was added to dilute the mixture to scale mark. The mixture was shaken well, and used as test article solution destructed by alkali. • (4) acid-base blank: 2 ml of 1 mol/L sodium hydroxide solution was placed into a 50 ml measuring flask. The solution was neutralized with 1 mol/L hydrochloric acid solution, then diluted to the scale mark with a diluent, and shaken well to serve as the acid-base destruction blank solution. • (5) test article solution destructed by oxidation: 28.10 mg of OAD2 or a pharmaceutically acceptable salt thereof was placed into a 50 ml measuring flask. 2 ml of 15% hydrogen peroxide was added, stood at room temperature for 9 h. The mixture was diluted to the scale mark with a diluent. […] It was dissolved and diluted to the scale mark with a diluent, shaken well, and used as the test article solution destructed by high temperature. • (8) test article solution destructed by light exposure: 25.12 mg of OAD2 or pharmaceutically acceptable salt thereof was accurately weighted, placed into a 50 ml measuring flask, stood under irradiation of light 4500 Lx+−500 Lx for 6 days. It was dissolved and diluted to the scale mark with a diluent, shaken well, and used as the test article solution destructed by light exposure. • (9) test article solution destructed by high-humidity destruction: 25.71 mg of OAD2 or a pharmaceutically acceptable salt thereof was placed into a 50 ml measuring flask, then the measuring flask was placed into a drier with KNO3 saturated solution at the bottom (humidity was 92.5%), stood for 5 days. It was dissolved and diluted to the scale mark with a diluent, shaken well, and used as the test article solution destructed by high-humidity destruction. • (10) blank solution that is not destructed, not destructed by high-temperature, not destructed by high-humidity and not destructed by light exposure: a diluent.
The measuring method: 2 μl of each of the above solutions (1)-(10) was injected into a liquid chromatograph, and the chromatograms were recorded. Among them, the results of the forced degradation experiment are shown in Table 13.1, and the results of the changes of various impurity components after the forced degradation are shown in Table 13.2. […]

[3] = test group 7: 1.5% solution of H2O2, RT, after 90 minutes

growth of impurities by HPLC [1, 3]: significant increase in impurities | loss of active ingredient [1, 3]: 10%
SMILES: CC[C@@H](c1ccccc1)N1Cc2cc3c(cc2C[C@H]1C(=O)N[C@@H](Cc1ccc(-c2ccnc(C)c2C)cc1)C(=O)O)OC[C@H](c1ccc(OCc2ccc(Cl)c(Cl)c2)cc1)O3 [OAD2 dihydrochloride, (S)-2-(3S,8S)-3-(4-(3,4-dichlorobenzyloxy)phenyl-7-((S)-1-phenylpropyl)-2,3,6,7,8,9-hexahydro-[1,4]-dioxino[2,3-g]isoquinolin-8-formylamino)-3-(4-(2,3-dimethylpyridin-4-yl)phenyl)propanoic acid dihydrochloride]
growth of impurities or loss of active ingredient by HPLC ([1]; test groups 1-6 and 8: water, 0.05N HCl, 0.05N NaOH at RT or 60° C., 1 and 2 days, UV light (365 nm) RT 24 hours): no substantial growth in any impurities or loss of active ingredient

Impurities C + D ([2]; Acid destruction): 0.03% | Impurity A ([2]; Acid destruction): 0.13 | Impurity B ([2]; Acid destruction): Undetected | Impurity E ([2]; Acid destruction): Undetected | Impurity F ([2]; Acid destruction): 0.34 | Impurity G ([2]; Acid destruction): 0.05 | Impurity H ([2]; Acid destruction): Undetected | Impurity I ([2]; Acid destruction): Undetected | Largest unknown impurity ([2]; Acid destruction): 0.07 | Number of impurities (≥0.05%) ([2]; Acid destruction): 4 | Purity of main peak ([2]; Acid destruction): 99.4% | Total Impurities ([2]; Acid destruction): 0.65% | Impurities C + D ([2]; Alkali destruction): 0.05% | Impurity A ([2]; Alkali destruction): 0.13 | Impurity B ([2]; Alkali destruction): 0.02 | Impurity E ([2]; Alkali destruction): Undetected | Impurity F ([2]; Alkali destruction): 0.36 | Impurity G ([2]; Alkali destruction): 0.07 | Impurity H ([2]; Alkali destruction): Undetected | Impurity I ([2]; Alkali destruction): Undetected | Largest unknown impurity ([2]; Alkali destruction): 0.07 | Number of impurities (≥0.05%) ([2]; Alkali destruction): 4 | Purity of main peak ([2]; Alkali destruction): 99.3% | Total Impurities ([2]; Alkali destruction): 0.73% | Impurities C + D ([2]; High humidity destruction): 0.04% | Impurity A ([2]; High humidity destruction): 0.12 | Impurity B ([2]; High humidity destruction): Undetected | Impurity E ([2]; High humidity destruction): 0.01 | Impurity F ([2]; High humidity destruction): 0.31 | Impurity G ([2]; High humidity destruction): 0.04 | Impurity H ([2]; High humidity destruction): Undetected | Impurity I ([2]; High humidity destruction): Undetected | Largest unknown impurity ([2]; High humidity destruction): 0.08 | Number of impurities (≥0.05%) ([2]; High humidity destruction): 3 | Purity of main peak ([2]; High humidity destruction): 99.3% | Total Impurities ([2]; High humidity destruction): 0.68% | Impurities C + D ([2]; High temperature destruction): 0.08% | Impurity A ([2]; High temperature destruction): 1.76 | Impurity B ([2]; High temperature destruction): 0.97 | Impurity E ([2]; High temperature destruction): 0.08 | Impurity F ([2]; High temperature destruction): 0.26 | Impurity G ([2]; High temperature destruction): 0.09 | Impurity H ([2]; High temperature destruction): 0.02 | Impurity I ([2]; High temperature destruction): Undetected | Largest unknown impurity ([2]; High temperature destruction): 2.36 | Number of impurities (≥0.05%) ([2]; High temperature destruction): 25 | Purity of main peak ([2]; High temperature destruction): 92.2% | Total Impurities ([2]; High temperature destruction): 7.8% | Impurities C + D ([2]; Light exposure destruction): 0.01% | Impurity A ([2]; Light exposure destruction): 1.13 | Impurity B ([2]; Light exposure destruction): 0.26 | Impurity E ([2]; Light exposure destruction): 0.12 | Impurity F ([2]; Light exposure destruction): 0.22 | Impurity G ([2]; Light exposure destruction): 0.03 | Impurity H ([2]; Light exposure destruction): 0.38 | Impurity I ([2]; Light exposure destruction): Undetected | Largest unknown impurity ([2]; Light exposure destruction): 0.78 | Number of impurities (≥0.05%) ([2]; Light exposure destruction): 24 | Purity of main peak ([2]; Light exposure destruction): 93.1% | Total Impurities ([2]; Light exposure destruction): 6.9% | Impurities C + D ([2]; No destruction): 0.05% | Impurity A ([2]; No destruction): 0.12 | Impurity B ([2]; No destruction): Undetected | Impurity E ([2]; No destruction): Undetected | Impurity F ([2]; No destruction): 0.31 | Impurity G ([2]; No destruction): 0.03 | Impurity H ([2]; No destruction): Undetected | Impurity I ([2]; No destruction): Undetected | Largest unknown impurity ([2]; No destruction): 0.07 | Number of impurities (≥0.05%) ([2]; No destruction): 3 | Purity of main peak ([2]; No destruction): 99.4% | Total Impurities ([2]; No destruction): 0.6% | Impurities C + D ([2]; Oxidative destruction): 0.18% | Impurity A ([2]; Oxidative destruction): 0.36 | Impurity B ([2]; Oxidative destruction): 2.77 | Impurity E ([2]; Oxidative destruction): Undetected | Impurity F ([2]; Oxidative destruction): 0.26 | Impurity G ([2]; Oxidative destruction): 0.20 | Impurity H ([2]; Oxidative destruction): Undetected | Impurity I ([2]; Oxidative destruction): 0.02 | Largest unknown impurity ([2]; Oxidative destruction): 2.56 | Number of impurities (≥0.05%) ([2]; Oxidative destruction): 18 | Purity of main peak ([2]; Oxidative destruction): 91.6% and 91.8% | Total Impurities ([2]; Oxidative destruction): 8.2%
SMILES: CC[C@@H](c1ccccc1)N1Cc2cc3c(cc2C[C@H]1C(=O)N[C@@H](Cc1ccc(-c2ccnc(C)c2C)cc1)C(=O)O)OC[C@H](c1ccc(OCc2ccc(Cl)c(Cl)c2)cc1)O3 [OAD2, (S)-2-(3S,8S)-3-(4-(3,4-dichlorobenzyloxy)phenyl-7-((S)-1-phenylpropyl)-2,3,6,7,8,9-hexahydro-[1,4]-dioxino[2,3-g]isoquinolin-8-ylformylamino)-3-(4-(2,3-dimethylpyridin-4-yl)phenyl)propionic acid]
